system: intra-macrophage Leishmania donovani amastigotes; assay: Intramacrophage Leishmania donovani assay (high content imaging); format: cell-based; settings: Leishmania donovani; intramacrophage L. donovani; read-out: pIC50 InMac (converted)

SMILES | IC50
Cc1ncccc1Oc1ncc(Cl)cc1S(=O)(=O)Nc1cccc(Cl)c1F [AV207107-107A1] | > 50.1 µM
O=C(O)C(F)(F)F.O=S(=O)(c1ccc2c(c1)CCN(Cc1ccc(F)cc1)CC2)n1cccc1 [CS100462-069A11B16] | 3.31 µM
O=C(O)C(F)(F)F.O=S(=O)(c1ccc2c(c1)CCN(Cc1cccnc1)CC2)n1ccc2c(F)cccc21 [CS100462-069A14B4] | 2 µM
Cc1ccnc(-c2nn[nH]c2Br)c1 [LK45855-125A1] | 33.1 µM
N#Cc1ccc(N2CCCC[C@H]2c2cccnc2)c([N+](=O)[O-])c1.O=C(O)C(F)(F)F.O=C(O)C(F)(F)F [MA102475-064A1B46] | 2.04 µM
O=C(O)C(F)(F)F.O=c1[nH]ccc2nc(NCCc3c[nH]cn3)nc(Nc3cccc(S(=O)(=O)N4CCOCC4)c3)c12 [N4347-22-1] | 38.9 µM
COc1ccc(CN2CCN(S(=O)(=O)c3ccc(OC(F)(F)F)cc3)CC2)cc1 [SC/122159] | 35.5 µM
CCCCCNC(=O)c1c(O)c2ccccc2[nH]c1=O [ST/243992] | > 50.1 µM
COc1cccc(-c2csc(NC(=O)c3cccc(Cl)c3)c2C(=O)O)c1 [ST/266497] | 45.7 µM
CNC(=O)c1ccsc1NC(=O)c1ccc([N+](=O)[O-])s1 [ST/492114] | 1.41 µM

same assay, conditions: Leishmania donovani; −logIC50 M; L. donovani infected THP-1 macrophages, 96 hours; read-out: pIC50 against intra-macrophage L. donovani amastigotes (converted)

SMILES | IC50
NC(=O)c1ccsc1NC(=O)c1ccc([N+](=O)[O-])s1 [compound 3] | 2 µM
CNC(=O)c1ccsc1NC(=O)c1ccc([N+](=O)[O-])s1 [compound 4] | 1.26 µM
N#Cc1ccc(N2CCCC[C@H]2c2cccnc2)c([N+](=O)[O-])c1 [compound 5] | 2 µM

system: HepG2 cells; assay: Mammalian cell cytotoxicity assay (CellTiter-Glo); format: cell-based, human; settings: not given

SMILES | pSI v HepG2
O=C(O)C(F)(F)F.O=S(=O)(c1ccc2c(c1)CCN(Cc1ccc(F)cc1)CC2)n1cccc1 [CS100462-069A11B16] | 3.64
O=C(O)C(F)(F)F.O=S(=O)(c1ccc2c(c1)CCN(Cc1cccnc1)CC2)n1ccc2c(F)cccc21 [CS100462-069A14B4] | 2.07
N#Cc1ccc(N2CCCC[C@H]2c2cccnc2)c([N+](=O)[O-])c1.O=C(O)C(F)(F)F.O=C(O)C(F)(F)F [MA102475-064A1B46] | 1.28
O=C(O)C(F)(F)F.O=c1[nH]ccc2nc(NCCc3c[nH]cn3)nc(Nc3cccc(S(=O)(=O)N4CCOCC4)c3)c12 [N4347-22-1] | 1.00
N#Cc1ccccc1Cn1cc(C(=O)c2ccccc2)c2ccccc21 [ST/1274537] | 1.45

same assay, conditions: Homo sapiens; -logIC50 mol against HepG2; read-out: PIC50 HepG2 (converted)

SMILES | IC50
Cc1ncccc1Oc1ncc(Cl)cc1S(=O)(=O)Nc1cccc(Cl)c1F [AV207107-107A1] | > 100 µM
O=C(O)C(F)(F)F.O=S(=O)(c1ccc2c(c1)CCN(Cc1ccc(F)cc1)CC2)n1cccc1 [CS100462-069A11B16] | > 100 µM
O=C(O)C(F)(F)F.O=S(=O)(c1ccc2c(c1)CCN(Cc1cccnc1)CC2)n1ccc2c(F)cccc21 [CS100462-069A14B4] | 52.5 µM
Cc1ccnc(-c2nn[nH]c2Br)c1 [LK45855-125A1] | > 100 µM
N#Cc1ccc(N2CCCC[C@H]2c2cccnc2)c([N+](=O)[O-])c1.O=C(O)C(F)(F)F.O=C(O)C(F)(F)F [MA102475-064A1B46] | 95.5 µM
O=C(O)C(F)(F)F.O=c1[nH]ccc2nc(NCCc3c[nH]cn3)nc(Nc3cccc(S(=O)(=O)N4CCOCC4)c3)c12 [N4347-22-1] | > 100 µM
COc1ccc(CN2CCN(S(=O)(=O)c3ccc(OC(F)(F)F)cc3)CC2)cc1 [SC/122159] | > 100 µM
CCCCCNC(=O)c1c(O)c2ccccc2[nH]c1=O [ST/243992] | > 100 µM
COc1cccc(-c2csc(NC(=O)c3cccc(Cl)c3)c2C(=O)O)c1 [ST/266497] | > 100 µM
O=C(Nc1nc2ccc([N+](=O)[O-])cc2s1)c1cc(Cl)sc1Cl [ST/489542] | 10 µM
CNC(=O)c1ccsc1NC(=O)c1ccc([N+](=O)[O-])s1 [ST/492114] | > 100 µM
O=C(Nc1ccc(OC(F)(F)F)cc1)Nc1ccc([N+](=O)[O-])cc1 [ST/500242] | 14.1 µM
C=CCSc1nsc(NC(=O)Nc2ccc(Cl)cc2C(F)(F)F)n1 [ST/566960] | 23.4 µM
O=C(Nc1nnc(C(F)(F)F)s1)c1ccc(Cl)cc1 [ST/570135] | 16.2 µM
O=C(Nc1nnc(C(F)(F)F)s1)c1ccc([N+](=O)[O-])c(Cl)c1 [ST/640830] | 25.7 µM
O=[N+]([O-])c1cc(NS(=O)(=O)c2ccc(Cl)c(C(F)(F)F)c2)ccc1F [ST/654862] | 38.9 µM
N#Cc1ccccc1Cn1cc(C(=O)c2ccccc2)c2ccccc21 [ST/1274537] | > 100 µM

same assay, conditions: selectivity: pIC50 axenic minus pIC50 HepG2

SMILES | pSI v HepG2
Cc1ncccc1Oc1ncc(Cl)cc1S(=O)(=O)Nc1cccc(Cl)c1F [AV207107-107A1] | 1.09
Cc1ccnc(-c2nn[nH]c2Br)c1 [LK45855-125A1] | 1.76
COc1ccc(CN2CCN(S(=O)(=O)c3ccc(OC(F)(F)F)cc3)CC2)cc1 [SC/122159] | 2.56
CCCCCNC(=O)c1c(O)c2ccccc2[nH]c1=O [ST/243992] | 1.68
COc1cccc(-c2csc(NC(=O)c3cccc(Cl)c3)c2C(=O)O)c1 [ST/266497] | 1.15
O=C(Nc1nc2ccc([N+](=O)[O-])cc2s1)c1cc(Cl)sc1Cl [ST/489542] | 0.89
CNC(=O)c1ccsc1NC(=O)c1ccc([N+](=O)[O-])s1 [ST/492114] | 2.05
O=C(Nc1ccc(OC(F)(F)F)cc1)Nc1ccc([N+](=O)[O-])cc1 [ST/500242] | 0.52
C=CCSc1nsc(NC(=O)Nc2ccc(Cl)cc2C(F)(F)F)n1 [ST/566960] | 1.67
O=C(Nc1nnc(C(F)(F)F)s1)c1ccc(Cl)cc1 [ST/570135] | 0.67
O=C(Nc1nnc(C(F)(F)F)s1)c1ccc([N+](=O)[O-])c(Cl)c1 [ST/640830] | 0.94
O=[N+]([O-])c1cc(NS(=O)(=O)c2ccc(Cl)c(C(F)(F)F)c2)ccc1F [ST/654862] | 0.97

system: THP-1 macrophages; assay: Host cell toxicity in the intramacrophage assay; format: cell-based, human; settings: Homo sapiens; THP-1 host cells in intramacrophage assay; read-out: pIC50 THP-1 (converted)

SMILES | IC50
Cc1ncccc1Oc1ncc(Cl)cc1S(=O)(=O)Nc1cccc(Cl)c1F [AV207107-107A1] | > 50.1 µM
O=C(O)C(F)(F)F.O=S(=O)(c1ccc2c(c1)CCN(Cc1ccc(F)cc1)CC2)n1cccc1 [CS100462-069A11B16] | 31.6 µM
O=C(O)C(F)(F)F.O=S(=O)(c1ccc2c(c1)CCN(Cc1cccnc1)CC2)n1ccc2c(F)cccc21 [CS100462-069A14B4] | 33.9 µM
Cc1ccnc(-c2nn[nH]c2Br)c1 [LK45855-125A1] | 32.4 µM
N#Cc1ccc(N2CCCC[C@H]2c2cccnc2)c([N+](=O)[O-])c1.O=C(O)C(F)(F)F.O=C(O)C(F)(F)F [MA102475-064A1B46] | > 50.1 µM
O=C(O)C(F)(F)F.O=c1[nH]ccc2nc(NCCc3c[nH]cn3)nc(Nc3cccc(S(=O)(=O)N4CCOCC4)c3)c12 [N4347-22-1] | > 50.1 µM
COc1ccc(CN2CCN(S(=O)(=O)c3ccc(OC(F)(F)F)cc3)CC2)cc1 [SC/122159] | > 50.1 µM
CCCCCNC(=O)c1c(O)c2ccccc2[nH]c1=O [ST/243992] | > 50.1 µM
COc1cccc(-c2csc(NC(=O)c3cccc(Cl)c3)c2C(=O)O)c1 [ST/266497] | > 50.1 µM
CNC(=O)c1ccsc1NC(=O)c1ccc([N+](=O)[O-])s1 [ST/492114] | > 50.1 µM

same assay, conditions: selectivity: pIC50 InMac minus pIC50 THP-1

SMILES | pSI v THP-1
Cc1ncccc1Oc1ncc(Cl)cc1S(=O)(=O)Nc1cccc(Cl)c1F [AV207107-107A1] | 0.00
O=C(O)C(F)(F)F.O=S(=O)(c1ccc2c(c1)CCN(Cc1ccc(F)cc1)CC2)n1cccc1 [CS100462-069A11B16] | 0.98
O=C(O)C(F)(F)F.O=S(=O)(c1ccc2c(c1)CCN(Cc1cccnc1)CC2)n1ccc2c(F)cccc21 [CS100462-069A14B4] | 1.23
Cc1ccnc(-c2nn[nH]c2Br)c1 [LK45855-125A1] | -0.01
N#Cc1ccc(N2CCCC[C@H]2c2cccnc2)c([N+](=O)[O-])c1.O=C(O)C(F)(F)F.O=C(O)C(F)(F)F [MA102475-064A1B46] | 1.39
O=C(O)C(F)(F)F.O=c1[nH]ccc2nc(NCCc3c[nH]cn3)nc(Nc3cccc(S(=O)(=O)N4CCOCC4)c3)c12 [N4347-22-1] | 0.11
COc1ccc(CN2CCN(S(=O)(=O)c3ccc(OC(F)(F)F)cc3)CC2)cc1 [SC/122159] | 0.15
CCCCCNC(=O)c1c(O)c2ccccc2[nH]c1=O [ST/243992] | 0.00
COc1cccc(-c2csc(NC(=O)c3cccc(Cl)c3)c2C(=O)O)c1 [ST/266497] | 0.04
CNC(=O)c1ccsc1NC(=O)c1ccc([N+](=O)[O-])s1 [ST/492114] | 1.55

system: L. donovani (MHOM/SD/62/1S-CL2D, LdBOB) axenic amastigotes; assay: Leishmania donovani axenic amastigote dose response assay (resazurin); format: cell-based; settings: -logIC50 mol against L. donovani (LdBOB) axenic amastigotes, read-out: pIC50 Axenic (converted)

SMILES | IC50
Cc1ncccc1Oc1ncc(Cl)cc1S(=O)(=O)Nc1cccc(Cl)c1F [AV207107-107A1] | 8.13 µM
O=C(O)C(F)(F)F.O=S(=O)(c1ccc2c(c1)CCN(Cc1ccc(F)cc1)CC2)n1cccc1 [CS100462-069A11B16] | 0.0229 µM
O=C(O)C(F)(F)F.O=S(=O)(c1ccc2c(c1)CCN(Cc1cccnc1)CC2)n1ccc2c(F)cccc21 [CS100462-069A14B4] | 0.447 µM
Cc1ccnc(-c2nn[nH]c2Br)c1 [LK45855-125A1] | 1.74 µM
N#Cc1ccc(N2CCCC[C@H]2c2cccnc2)c([N+](=O)[O-])c1.O=C(O)C(F)(F)F.O=C(O)C(F)(F)F [MA102475-064A1B46] | 5.01 µM
O=C(O)C(F)(F)F.O=c1[nH]ccc2nc(NCCc3c[nH]cn3)nc(Nc3cccc(S(=O)(=O)N4CCOCC4)c3)c12 [N4347-22-1] | 10 µM
COc1ccc(CN2CCN(S(=O)(=O)c3ccc(OC(F)(F)F)cc3)CC2)cc1 [SC/122159] | 0.275 µM
CCCCCNC(=O)c1c(O)c2ccccc2[nH]c1=O [ST/243992] | 2.09 µM
COc1cccc(-c2csc(NC(=O)c3cccc(Cl)c3)c2C(=O)O)c1 [ST/266497] | 7.08 µM
O=C(Nc1nc2ccc([N+](=O)[O-])cc2s1)c1cc(Cl)sc1Cl [ST/489542] | 1.29 µM
CNC(=O)c1ccsc1NC(=O)c1ccc([N+](=O)[O-])s1 [ST/492114] | 0.891 µM
O=C(Nc1ccc(OC(F)(F)F)cc1)Nc1ccc([N+](=O)[O-])cc1 [ST/500242] | 4.27 µM
C=CCSc1nsc(NC(=O)Nc2ccc(Cl)cc2C(F)(F)F)n1 [ST/566960] | 0.501 µM
O=C(Nc1nnc(C(F)(F)F)s1)c1ccc(Cl)cc1 [ST/570135] | 3.47 µM
O=C(Nc1nnc(C(F)(F)F)s1)c1ccc([N+](=O)[O-])c(Cl)c1 [ST/640830] | 2.95 µM
O=[N+]([O-])c1cc(NS(=O)(=O)c2ccc(Cl)c(C(F)(F)F)c2)ccc1F [ST/654862] | 4.17 µM
N#Cc1ccccc1Cn1cc(C(=O)c2ccccc2)c2ccccc21 [ST/1274537] | 3.55 µM
